Assay results taken from US10816541B2, “Method for predicting side effect of whitening ingredient” (AMOREPACIFIC CORPORATION, priority 2015, dated 2020).
“Also recorded” adds a separate entry of the source. Where two headings read alike, the source gives them in different places.

How the values were obtained:
[1] = Cytotoxic concentration for HEMn-MP cells depending on treatment time (CCK-8, Test Example 1-1); format: cell-based, human; details: human, HEMn-MP cells (human epidermal melanocytes); for CC50 at 1 day: Day 1; for CC50 at 7 days: Day 7
Description: (§1) The HEMn-MP (human epidermal melanocytes, neonatal, moderately pigmented donor, Cat. No. C-102-5C) cells were purchased from Life Technologies (USA). As a cell culture medium, medium 254 (Cat. No. M-254-500) supplemented with HMGS (Cat. No. S-002-5) was used. The cells were cultured according to the manufacturer's manual and cells during passages 3-8 were used. To summarize, the cells were cultured on a 175 T flask in a 5% CO2 incubator at 37° C. During subculturing, the cells were separated using 0.05% trypsin-EDTA, collected by centrifugation (1200 rpm, 5 minutes) and cultured after seeding to 5×10^3 cells/cm^2. For cytotoxicity test, the cells were seeded onto a 96-well plate with 2×10^4 cells/well, cultured for a day and treated with each substance at 200 μL/well. Then, cytotoxicity was measured after a predetermined time.
(§2) Cytotoxicity was measured with Cell Counting Kit-8 (CCK-8) manufactured by Dojindo Molecular Technologies (USA). After removing the medium from the 96-well plate, 200 μL of 10% CCK-8 in the same medium was added to each well. After incubation at 37° C. for about 2 hours, absorbance of 100 μL of the medium was measured at 450 nm using an ELISA reader. As the cells […], the color of CCK-8 shifts to longer wavelength from colorless to orange color.
(§3) Cell survivability was calculated according to Equation 1. Cell survivability (%)={(Asample−Ab)/(Ac−Ab)}×100 [Equation 1]
(§4) In order to determine the cytotoxic concentration of the whitening ingredients for HEMn-MP (human epidermal melanocytes, neonatal, moderately pigmented donor, Cat. No. C-102-5C) cells, cell survivability (% cell survival rate) was measured as compared to a control group (0.5% DMSO) on days 1 and 7 after treatment with each whitening ingredient at the concentration described in Table 1 (FIG. 2). Based on the measurement result, CC20 and CC50 were calculated for the whitening ingredients and treatment time. Then, the ratio of the cytotoxic concentration on day 7 as compared to day 1 was calculated (Table 2).

HEMn-MP cells [2] = assay: as above; format: cell-based, human
Description: as §1, §2, §3, §4

[3] = Cytotoxic concentration for A375 cells depending on treatment time (CCK-8, Test Example 1-2); format: cell-based, human; details: human, A375 cells (melanoma cell line), A375 cells; for CC50 at 24 hours: Day 1 (24 hours); for CC50 at 3 days: Day 3
Description: (§5) The A375 (human melanoma cell line) cells were purchased from the ATCC (Cat. No. CRL-1619, USA). As a cell culture medium, DMEM (Cat. No. 12-604, Lonza, USA) supplemented with 10% FBS (Cat. No. 16000-044, Gibco, USA) was used. Subculturing and cytotoxicity test were conducted in the same manner as for the HEM cells.
as §2, §3
(§6) The cytotoxicity of the whitening ingredients for A375 (human melanoma cell line, Cat. No. CRL-1619) cells with different treatment time was investigated. The toxicity was measured for 3 different sample treatment conditions. The cytotoxicity was measured after treating with the whitening ingredients for 24 hours, after treating with the samples for 24 hours and 48 hours later after exchanging with fresh media, and after treating with the samples for 72 hours without exchange of media. The result is shown as graphs (FIG. 3). Based on the measurement result, CC20 and CC50 were calculated for the whitening ingredients and treatment time. Then, the ratio of the cytotoxic concentration on day 3 as compared to day 1 was calculated (Table 3).

A375 cells = assay: as above; format: cell-based, human; details: for Change in cytotoxicity after removal of the samples: A375 cells treated for a day, then cultured further for 2 days after removing the samples; for CC20 / CC50: A375 cells
Description: as §5, §2, §3, §6

HEMn-MP cells [4] = assay: Inhibition of melanin production in HEMn-MP cells and correlation factor with cytotoxic concentration (Test Example 2); format: cell-based, human; details: for CC20/EC50 / EC50 / CC50/EC50: HEMn-MP cells, day 7; for CC20/EC50: 20% cytotoxic concentration divided by EC50 of melanin production; for EC50: read-out: EC50 (50% inhibitory concentration of melanin synthesis); for CC50/EC50: 50% cytotoxic concentration divided by EC50 of melanin production
Description: The inhibitory effect of melanin production of the whitening ingredients for HEMn-MP cells was investigated. After treating the cells with the samples at concentrations shown in Table 4 and culturing for 7 days, the amount of melanin was measured as compared to a control group (0.5% DMSO) (FIG. 4). Also, EC50 (50% effective inhibitory concentration of melanin production) was calculated for the whitening ingredients (Table 5). Then, CC20 or CC50 was divided by EC50 to investigate the correlation factor (difference) between the cytotoxicity and the effective inhibitory concentration of melanin production (Table 6).
Table 6 compares the correlation factor between the cytotoxic concentration (CC50) and the inhibitory concentration of melanin synthesis (EC50) of the whitening ingredients on day 7. CC20/EC50 is the value obtained by dividing the 20% cytotoxic concentration by the 50% effective inhibitory concentration of melanin production and represents the correlation factor of the 20% cytotoxic concentration and the effective concentration. CC50/EC50 is the value obtained by dividing the 50% cytotoxic concentration by the 50% effective inhibitory concentration of melanin production and represents the correlation factor of the 50% cytotoxic concentration and the effective concentration.

HEMn-MP cells [5] = assay: Cytotoxicity for HEMn-MP cells with or without UVB radiation (Test Example 3); format: cell-based, human; details: UVB 20 mJ/cm^3 irradiated vs unirradiated HEMn-MP cells, day 7
Excerpt: In order to investigate the effect of UVB radiation on the cytotoxicity of the whitening ingredients, cytotoxicity was compared for groups treated with the whitening ingredients without UVB radiation and groups irradiated with UVB at […] and then treated with the whitening ingredients (FIG. 5). That is to say, the response of the cells excited by UVB radiation to various whitening ingredients was investigated. After irradiating the cells with UVB and treating the cells with the samples, increase in cytotoxicity was determined and the ratio of cytotoxicity as compared to before the treatment was calculated (Table 7).
The ratio (%) of toxicity for the UVB-irradiated cells as compared to UVB-unirradiated cells was determined at representative concentrations (3 points) for each whitening ingredient. The ratio was corrected for the cytotoxicity of the control group (15-20%).

[6] = consumers of commercialized skin whitening products, cited from earlier work

SMILES | CC50 at 1 day [1] | CC50 at 7 days [1] | CC20 (HEMn-MP cells [2]; Day 1) | CC20 (HEMn-MP cells [2]; Day 7) | CC50 at 24 hours [3] | CC50 at 3 days [3] | Change in cytotoxicity after removal of the samples (A375 cells) | CC20 (A375 cells; Day 1 (24 hours)) | CC20 (A375 cells; Day 3) | CC20/EC50 (HEMn-MP cells [4]) | EC50 (HEMn-MP cells [4]; Homo sapiens, 168 h) | CC50/EC50 (HEMn-MP cells [4]) | Clinical side effect reported by users [6] | Ratio of cytotoxicity (HEMn-MP cells [5]; 1.25 mM) | Ratio of cytotoxicity (HEMn-MP cells [5]; 2.5 mM) | also measured
COc1cc(OC)c(C23CC4CC(CC(C4)C2)C3)cc1C(=O)NCc1ccc(O)cc1O [AP, 5-adamantan-1-yl-N-(2,4-dihydroxybenzyl)-2,4-dimethoxy-benzoic acid amide] | 5.4 ± 0.3 µM | 2.5 µM | 3.3 ± 0.4 µM | 1.3 ± 0.0 µM | 33.8 ± 0.7 µM | 19.99 ± 0.06 µM | no more increase in cytotoxicity | 25.5 ± 0.8 µM | 17.2 ± 0.09 µM | 11.8 Fold | 0.11 ± 0.01 µM | – | – | – | – | Inhibitory effect of melanin production by melanocytes (HEMn-MP cells [4]; Test Example 2): excellent inhibitory effect of melanin production; Ratio of cytotoxicity (HEMn-MP cells [5]; 0.39 μM): 2%; Ratio of cytotoxicity (HEMn-MP cells [5]; 0.78 μM): 14%; Ratio of cytotoxicity (HEMn-MP cells [5]; 1.56 μM): 0%
Oc1ccc(OCc2ccccc2)cc1 [MB, 4-benzyloxy-phenol] | 284 ± 28.2 µM | 19 ± 0.7 µM | 178.2 ± 21.6 µM | 8.9 ± 0.4 µM | 295 ± 7.2 µM | 7.19 ± 0.14 µM | continuously increased toxicity | 119.8 ± 4.7 µM | 2.31 ± 0.07 µM | 1.3 Fold | 6.8 ± 2.5 µM | 2.8 Fold | leukoderma-like side effects | – | – | –
CCCCc1ccc(O)cc1O [RC, 4-butylresorcinol] | 347 ± 12.7 µM | 284 ± 20.4 µM | 170.2 ± 15.9 µM | 69.7 ± 6.1 µM | 508 ± 11.3 µM | 122 ± 11 µM | no more increase in cytotoxicity | 313.9 ± 10.6 µM | 52.73 ± 4.67 µM | >20 Fold | 2.7 ± 0.6 µM | – | – | – | – | Ratio of cytotoxicity (HEMn-MP cells [5]; 31.25 μM): 0%; Ratio of cytotoxicity (HEMn-MP cells [5]; 62.5 μM): 0%; Ratio of cytotoxicity (HEMn-MP cells [5]; 125 μM): 0%; Clinical side effect reported by users ([6]; listed as rucinol): no clinical side effect has been reported; also recorded: no clinical problem has been reported
C[C@@H](O)CCc1ccc(O)cc1 [RD, rhododenol] | – | – | 7100 ± 800 µM | 1000 ± 0 µM | – | – | continuously increased toxicity | 4200 ± 200 µM | 190 ± 10 µM | 0.8 Fold | – | 2.1 Fold | leukoderma-like side effects; also recorded: leukoderma-like symptoms | 24% | 27% | CC50 (HEMn-MP cells [2]; Day 1): 10800 ± 700 µM; CC50 (HEMn-MP cells [2]; Day 7): 2400 ± 100 µM; CC50 (A375 cells; Day 1 (24 hours)): 8400 ± 200 µM; CC50 (A375 cells; Day 3): 500 ± 20 µM; EC50 (HEMn-MP cells [4]): 1130 ± 160 µM; Ratio of cytotoxicity (HEMn-MP cells [5]; 5 mM): 15%
CC(=O)CCc1ccc(O)cc1 [RK, raspberry ketone] | 10400 ± 200 µM | 1400 ± 400 µM | 6500 ± 200 µM | 400 ± 100 µM | 10700 ± 100 µM | 790 ± 40 µM | continuously increased toxicity | 6700 ± 100 µM | 240 ± 20 µM | 0.4 Fold | 970 ± 90 µM | 1.4 Fold | leukoderma-like side effects | 8% | 26% | Ratio of cytotoxicity (HEMn-MP cells [5]; 0.625 mM): 19%
